Data from patent US20160346249A1 (priority 2012, published 2016).
Marks after values point to notes of the source that are not given here.

Assays:
human recombinant MAO-A = target: T1, human recombinant MAO-A (Homo sapiens, UniProt P21397); test: Metabolism by recombinant MAO-A; format: in vitro ADME
T1 construct: purchased BD Biosciences, Woburn, Mass
T1 sequence (P21397 1-527): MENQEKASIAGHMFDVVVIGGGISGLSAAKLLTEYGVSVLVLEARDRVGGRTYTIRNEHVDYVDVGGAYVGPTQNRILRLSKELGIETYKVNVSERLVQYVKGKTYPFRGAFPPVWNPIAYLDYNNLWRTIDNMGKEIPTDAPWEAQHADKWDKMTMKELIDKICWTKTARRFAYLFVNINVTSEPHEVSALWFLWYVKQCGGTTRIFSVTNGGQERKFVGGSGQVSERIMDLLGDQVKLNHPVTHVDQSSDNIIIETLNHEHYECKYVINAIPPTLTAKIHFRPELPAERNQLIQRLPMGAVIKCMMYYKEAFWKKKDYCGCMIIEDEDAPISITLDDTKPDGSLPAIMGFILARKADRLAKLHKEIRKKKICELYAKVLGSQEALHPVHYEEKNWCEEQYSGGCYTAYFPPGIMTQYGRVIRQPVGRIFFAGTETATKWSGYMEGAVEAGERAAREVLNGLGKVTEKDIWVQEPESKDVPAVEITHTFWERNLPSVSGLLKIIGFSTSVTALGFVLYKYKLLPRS
Method: Incubation systems (ca. 0.2 mL) of human recombinant MAO-A (1.0 mg/mL) and MAO-B (1.0 mg/mL) (BD Biosciences, Woburn, Mass.) were prepared in triplicated 0.1 M potassium phosphate buffer (pH 7.4) (BD Biosciences, Woburn, Mass.). […] The negative samples were prepared as described above, with the exception that instead of HLM, HLmito, or recombinant enzymes, water was added to the incubation mixture.

[1] = Acute intravenous or oral mouse bioavailability study; format: in vivo; conditions: plasma, fasted male mice, oral 6 mg/kg vs IV 5 mg/kg
Method: Fasted male mice were used in this study. Concentrations were determined using an LC/MS/MS assay following liquid-liquid extraction of plasma samples. Bioavailability was calculated using the mean normalized AUC0-∞ values obtained following oral administration of 6 mg/kg relative to the mean normalized AUC0-∞ at 5 mg/kg IV.

[2] = 13-week dog toxicity and toxicokinetic study; format: in vivo; conditions: for AUC(0-t) / Cmax / Tmax: beagle, dog, in vivo; for AUC(0-t): read-out: AUC0-24; for body weight gain during the study: 20 mg/kg; for mean body weight lower than control: end of study
Method: […] For toxicology assessment, clinical observations, body weight, and food consumption measures were recorded periodically during the study. Ophthalmic examinations were performed and ECGs recorded during Weeks −1 and 12. Clinical pathology evaluations (hematology, serum chemistry, and urinalysis) were performed prior to the initiation of dose administration (Week −1) and prior to the scheduled necropsy (Week 13). At termination, complete necropsies were performed on all dogs and selected organs were weighed. Selected tissues from the control and 20 mg/kg/day group animals and animals euthanized in extremis were examined microscopically. Gross lesions from the 2 and 6 mg/kg/day groups were also examined.

[3] = 2-week rat toxicology and toxicokinetic study; format: in vivo; conditions: for Cmax / Tmax / AUC(0-t): po; for AUC(0-t): read-out: AUC0-24
[4] = Dog oral cardiovascular (radiotelemetry) study; format: in vivo
Method: There were four male and four female dogs per group. Surgical implantation of radiotelemetry devices occurred under anesthesia approximately 1 week prior to study initiation. The test article was administered according to a Latin square design such that each radiotelemetry-implanted dog received each treatment once, with a 7-day washout period between doses. Clinical examinations and detailed physical examinations were performed, and individual body weights were recorded on dosing days.

[5] = female, po, 2 mg/kg/day, females, 2 mg/kg/day, Day 0
[6] = female, po, 2 mg/kg/day, females, 2 mg/kg/day, Day 86
[7] = female, po, 6 mg/kg/day, females, 6 mg/kg/day, Day 0
[8] = female, po, 6 mg/kg/day, females, 6 mg/kg/day, Day 86
[9] = female, po, 20 mg/kg/day, females, 20 mg/kg/day, Day 0
[10] = female, po, 20 mg/kg/day, females, 20 mg/kg/day, Day 86
[11] = male, po, 2 mg/kg/day, males, 2 mg/kg/day, Day 0
[12] = male, po, 2 mg/kg/day, males, 2 mg/kg/day, Day 86
[13] = male, po, 6 mg/kg/day, males, 6 mg/kg/day, Day 0
[14] = male, po, 6 mg/kg/day, males, 6 mg/kg/day, Day 86
[15] = male, po, 20 mg/kg/day, males, 20 mg/kg/day, Day 0
[16] = male, po, 20 mg/kg/day, males, 20 mg/kg/day, Day 86
[17] = female, Crl:CD (SD)IGS BR, rat, in vivo, 10 mg/kg/day, females, 10 mg/kg/day, Day 0
[18] = female, Crl:CD (SD)IGS BR, rat, in vivo, 10 mg/kg/day, females, 10 mg/kg/day, Day 13
[19] = female, Crl:CD (SD)IGS BR, rat, in vivo, 20 mg/kg/day, females, 20 mg/kg/day, Day 0
[20] = female, Crl:CD (SD)IGS BR, rat, in vivo, 20 mg/kg/day, females, 20 mg/kg/day, Day 13
[21] = female, Crl:CD (SD)IGS BR, rat, in vivo, 40 mg/kg/day, females, 40 mg/kg/day, Day 0
[22] = female, Crl:CD (SD)IGS BR, rat, in vivo, 40 mg/kg/day, females, 40 mg/kg/day, Day 13
[23] = male, Crl:CD (SD)IGS BR, rat, in vivo, 10 mg/kg/day, males, 10 mg/kg/day, Day 13
[24] = male, Crl:CD (SD)IGS BR, rat, in vivo, 20 mg/kg/day, males, 20 mg/kg/day, Day 0
[25] = male, Crl:CD (SD)IGS BR, rat, in vivo, 20 mg/kg/day, males, 20 mg/kg/day, Day 13
[26] = male, Crl:CD (SD)IGS BR, rat, in vivo, 40 mg/kg/day, males, 40 mg/kg/day, Day 0
[27] = male, Crl:CD (SD)IGS BR, rat, in vivo, 40 mg/kg/day, males, 40 mg/kg/day, Day 13
[28] = male, Crl:CD(SD)IGS BR, rat, in vivo, 10 mg/kg/day, males, 10 mg/kg/day, Day 0

O=C1NCC2(c3ccc(Cl)c(Cl)c3)CC12 (centres unmarked) [EB-10101, 5-(3,4-dichloro-phenyl)-3-aza-bicyclo[3.1.0]hexan-2-one]
MAO-A mediation of formation (human recombinant MAO-A; human recombinant MAO-A): MAO-A mediated | EB-10101 formation rate (mean ± SD) (human recombinant MAO-A; recombinant MAO-A 1 mg/mL, EB-1010 1 μM, 30 min, underestimated (substrate limited)): 7.0 ± 2.7^b pmol/min/mg protein

Clc1ccc([C@]23CNC[C@H]2C3)cc1Cl [amitifadine, (+)-1-(3,4-dichlorophenyl)-3-azabicyclo[3.1.0]hexane]
bioavailability [1]: ~16% | AUC(0-t) ([2]; female, oral, 6 mg/kg/day, females, 6 mg/kg/day, Day 86): 15900 ng·h/mL | Cmax [2, 5]: 635 ng/mL | Tmax [2, 5]: 1 h | AUC(0-t) [2, 5]: 1480 ng·h/mL | Cmax [2, 6]: 663 ng/mL | Tmax [2, 6]: 1 h | AUC(0-t) [2, 6]: 2150 ng·h/mL | Cmax [2, 7]: 5120 ng/mL | Tmax [2, 7]: 1 h | AUC(0-t) [2, 7]: 13600 ng·h/mL | Cmax [2, 8]: 4850 ng/mL | Tmax [2, 8]: 1 h | Cmax [2, 9]: 9280 ng/mL | Tmax [2, 9]: 2 h | AUC(0-t) [2, 9]: 63600 ng·h/mL | Cmax [2, 10]: 8430 ng/mL | Tmax [2, 10]: 1 h | AUC(0-t) [2, 10]: 29600 ng·h/mL | body weight gain during the study ([2]; females): 0.4 ± 0.79 kg | mean body weight lower than control ([2]; females, 20 mg/kg/day): 9% | AUC(0-t) ([2]; male, oral, 6 mg/kg/day, males, 6 mg/kg/day, Day 86): 13100 ng·h/mL | Cmax [2, 11]: 507 ng/mL | Tmax [2, 11]: 1 h | AUC(0-t) [2, 11]: 1570 ng·h/mL | Cmax [2, 12]: 753 ng/mL | Tmax [2, 12]: 1 h | AUC(0-t) [2, 12]: 2280 ng·h/mL | Cmax [2, 13]: 4640 ng/mL | Tmax [2, 13]: 1 h | AUC(0-t) [2, 13]: 12800 ng·h/mL | Cmax [2, 14]: 4140 ng/mL | Tmax [2, 14]: 1 h | Cmax [2, 15]: 11400 ng/mL | Tmax [2, 15]: 1 h | AUC(0-t) [2, 15]: 47800 ng·h/mL | Cmax [2, 16]: 7230 ng/mL | Tmax [2, 16]: 1 h | AUC(0-t) [2, 16]: 44000 ng·h/mL | body weight gain during the study ([2]; males): -0.3 ± 0.58 kg | food consumption less than control ([2]; males, 20 mg/kg/day): ≥ 10% | mean body weight lower than control ([2]; males, 20 mg/kg/day): 13% | NOAEL at 14 days ([3]; both sexes, Crl:CD(SD)IGS BR, rat, in vivo, oral gavage, 14 days, read-out: NOAEL for systemic toxicity): 40 mg/kg/day | Cmax [3, 17]: 1830 ng/mL | Tmax [3, 17]: 2 h | AUC(0-t) [3, 17]: 11600 ng·h/mL | Cmax [3, 18]: 1150 ng/mL | Tmax [3, 18]: 2 h | AUC(0-t) [3, 18]: 8190 ng·h/mL | Cmax [3, 19]: 2800 ng/mL | Tmax [3, 19]: 1 h | AUC(0-t) [3, 19]: 28600 ng·h/mL | Cmax [3, 20]: 2300 ng/mL | Tmax [3, 20]: 1 h | AUC(0-t) [3, 20]: 22000 ng·h/mL | Cmax [3, 21]: 4440 ng/mL | Tmax [3, 21]: 4 h | AUC(0-t) [3, 21]: 50600 ng·h/mL | Cmax [3, 22]: 3100 ng/mL | Tmax [3, 22]: 2 h | AUC(0-t) [3, 22]: 32900 ng·h/mL | increase in mean absolute liver weight ([3]; females, 40 mg/kg/day): 18% | Cmax [3, 23]: 878 ng/mL | Tmax [3, 23]: 2 h | AUC(0-t) [3, 23]: 6310 ng·h/mL | Cmax [3, 24]: 3000 ng/mL | Tmax [3, 24]: 1 h | AUC(0-t) [3, 24]: 17400 ng·h/mL | Tmax [3, 25]: 2 h | AUC(0-t) [3, 25]: 13000 ng·h/mL | Cmax [3, 26]: 3040 ng/mL | Tmax [3, 26]: 1 h | AUC(0-t) [3, 26]: 34800 ng·h/mL | Cmax [3, 27]: 2730 ng/mL | Tmax [3, 27]: 1 h | AUC(0-t) [3, 27]: 25600 ng·h/mL | Tmax [3, 28]: 1 h | AUC(0-t) [3, 28]: 7880 ng·h/mL | increase in mean absolute liver weight ([3]; males, 40 mg/kg/day): 20% | change in QTcV interval ([4]; 10 mg/kg oral): < 2% | NOEL ([4]; single oral capsule): 10 mg/kg
